Measurements: US11667602B2, “Compounds and their use” (AstraZeneca AB, priority 2020, dated 2023)
≈ marks a conversion by molar mass, not a printed value. Where two headings read alike, the source gives them in different places.

Legend:
[1] = Rat Hepatocyte Stability (Test E); type: in vitro ADME; settings: rat, hepatocytes, geometric mean if run multiple times
In short: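 Intrinsic clearance in rat hepatocytes, expressed as μl/min/10^6 cells, following the literature integrated DMPK panel method. Repeat determinations combined as geometric mean.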

[2] = Solubility (Test F); type: physicochemical; settings: arithmetic mean if run multiple times
Description: The assay was conducted according to the Solubility Assay described in pages 164-167 of Wernevik, J. et al., “A Fully Integrated Assay Panel for Early Drug Metabolism and Pharmacokinetics Profiling”, Assay and Drug Development Technologies, 2020, 18(4), 157-179. Data are reported in Table 36 as solubility ([…]. Where the assay was run multiple times for the same compound, the arithmetic mean is reported.

[3] = target: T1, human RXFP1 (Homo sapiens, UniProt Q9HBX9); assay: RXFP1 Hu cAMP (Test A); type: cell-based; parameters: expressed in transfected cells; host or cells: Jump-In T-REx CHO-K1 cells (ThermoFisher), induced with 10 ng/ml doxycycline for 24 h
T1 sequence (Q9HBX9 1-757): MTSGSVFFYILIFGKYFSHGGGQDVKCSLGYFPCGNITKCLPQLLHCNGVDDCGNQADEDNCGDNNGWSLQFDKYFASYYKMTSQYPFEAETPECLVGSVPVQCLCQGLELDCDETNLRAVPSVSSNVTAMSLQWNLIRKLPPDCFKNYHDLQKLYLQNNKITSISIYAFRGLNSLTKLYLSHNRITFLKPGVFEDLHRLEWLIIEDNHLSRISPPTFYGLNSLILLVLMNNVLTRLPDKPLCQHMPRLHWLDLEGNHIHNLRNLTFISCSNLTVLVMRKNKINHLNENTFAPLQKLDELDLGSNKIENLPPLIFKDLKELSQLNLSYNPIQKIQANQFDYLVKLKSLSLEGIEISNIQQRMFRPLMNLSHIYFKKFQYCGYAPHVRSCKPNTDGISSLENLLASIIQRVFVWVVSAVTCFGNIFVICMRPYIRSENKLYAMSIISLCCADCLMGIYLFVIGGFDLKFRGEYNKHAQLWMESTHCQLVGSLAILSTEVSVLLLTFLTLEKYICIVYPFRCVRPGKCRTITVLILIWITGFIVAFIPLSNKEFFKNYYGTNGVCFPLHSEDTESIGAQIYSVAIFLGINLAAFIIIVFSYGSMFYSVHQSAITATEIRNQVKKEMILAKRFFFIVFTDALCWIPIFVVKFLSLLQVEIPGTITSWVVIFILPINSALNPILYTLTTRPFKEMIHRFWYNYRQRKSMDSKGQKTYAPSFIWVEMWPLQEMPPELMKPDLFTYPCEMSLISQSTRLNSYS
In short: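 Doxycycline-induced (10 ng/ml, 24 h) CHO-K1 cells stably expressing human RXFP1; cAMP read by competitive HTRF after 2 h at room temperature, with 0.5 mM IBMX final.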

[4] = Human Plasma Protein Binding (Test B); type: in vitro ADME; settings: fraction unbound (fu)
In short: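 Values given as % free (fu) in human plasma, using the method of Wernevik et al. (2020). For compounds tested more than once, the arithmetic mean is given.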

[5] = Human Liver Microsomal Stability (Test C); type: in vitro ADME; settings: human, liver microsomes
In short: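 CLint (μl/min/mg protein) derived from compound depletion in human liver microsomes following a published standardized early-DMPK protocol; replicate determinations given as arithmetic mean.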

[6] = Human Hepatocyte Stability (Test D); type: in vitro ADME; settings: human, cryopreserved pooled human hepatocytes (LiverPool 10-Donor), geometric mean if run multiple times
In short: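 Intrinsic clearance (μL/min/10^6 cells), derived as kV/N from the log-linear loss of parent compound. Compound incubated at 37 °C with cryopreserved pooled human hepatocytes, 0.25×10^6 cells in 0.25 mL L-15; dosing solution 100 μM in acetonitrile. Singlicate incubations, cassette LC-MS; repeats reported as geometric mean.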

[7] = RXFP1 Hu cAMP, read-out: Test A EC50

| Compound | hepatocyte CLint [1] [µL/min/1e6 cells] | solubility [2] [µM] | Test A Sinf ([3]; RXFP1 Hu cAMP) [%] | EC50 [3, 7] [nM] | Test B Human Plasma Protein Binding (% free) [4] [% free] | microsomal CLint [5] [µL/min/mg] | hepatocyte CLint at 1 µM [6] [µL/min/1e6 cells] | EC50 ([3]; Test A EC50, RXFP1 Hu cAMP) [nM] |
| --- | --- | --- | --- | --- | --- | --- | --- | --- |
| COc1c(C#N)cc(O[C@H]2CC[C@@](C)(C(=O)O)CC2)cc1C(=O)N[C@@H]1[C@H]2CC[C@H](C2)[C@@H]1C(=O)NCC1(C)CCC1 [Example 404] | 19 | 1000 (≈ 552 µg/mL) |  |  | 2.3 | 50 | 11 | 86 |
| COc1cc(F)c(-c2ccc(C(=O)O)cc2)cc1C(=O)N[C@H]1[C@@H]2CC[C@@H](C2)[C@H]1C(=O)Nc1ccc(F)c(C(F)(F)F)c1 (single isomer, unassigned) [Example 591] | 28 | > 1000 | 111 |  | <0.36 | 19 | 140 |  |
| COc1cc(F)c(O[C@H]2CC[C@@](CO)(C(=O)O)CC2)cc1C(=O)N[C@@H]1[C@H]2CC[C@H](C2)[C@@H]1C(=O)NCC1(C(F)(F)F)CCC1 [Example 365] | 15 | 980 (≈ 602 µg/mL) | 113 | 57 | 7.8 | 14 | 9.3 |  |
| COc1cc(C#N)c(O[C@H]2CC[C@@](C)(C(=O)O)CC2)cc1C(=O)N[C@@H]1[C@H]2CC[C@H](C2)[C@@H]1C(=O)NC1(C)CCC1 [Example 90] | 18 | 800 (≈ 430 µg/mL) | 111 | 140 | 14 | < 3 | < 1 |  |
| Cc1cc(F)c(O[C@H]2CC[C@@](C)(C(=O)O)CC2)cc1C(=O)N[C@@H]1[C@H]2CC[C@H](C2)[C@@H]1C(=O)NCC1(C)CCC1 [Example 5, (1S,4s)-4-(2-Fluoro-4-methyl-5-(((1S,2R,3S,4R)-3-(((1-methylcyclobutyl)methyl)carbamoyl)bicyclo[2.2.1]heptan-2-yl)carbamoyl)phenoxy)-1-methylcyclohexane-1-carboxylic acid] | 11 | 800 (≈ 423 µg/mL) | 85 |  | 2.4 | 16 | 15 | > 1700 |
| COc1cc(F)c(O[C@H]2C[C@@H](C(=O)O)C2)cc1C(=O)NC1[C@H]2CC[C@H](C2)[C@@H]1C(=O)Nc1cccc(S(=O)(=O)C(F)(F)F)c1 (some centres unmarked) [Example 444] | 22 | > 1000 | 117 | 120 | 2.5 | 18 | 15 |  |
| COc1cc(F)c(O[C@H]2CC[C@@H](C(=O)O)CC2)cc1C(=O)N[C@@H]1[C@H]2CC[C@H](C2)[C@@H]1C(=O)NCC(C)(C)C [Example 180, (1S,4s)-4-(2-Fluoro-4-methoxy-5-(((1S,2R,3S,4R)-3-(neopentylcarbamoyl)bicyclo[2.2.1]heptan-2-yl)carbamoyl)phenoxy)cyclohexane-1-carboxylic acid] | 130 | > 1000 | 100 |  | 14 | 6.8 | 2.2 | 950 |

The next lines start with results.

| hepatocyte CLint [1] [µL/min/1e6 cells] | solubility [2] [µM] | Test A Sinf ([3]; RXFP1 Hu cAMP) [%] | EC50 [3, 7] [nM] | Test B Human Plasma Protein Binding (% free) [4] [% free] | microsomal CLint [5] [µL/min/mg] | hepatocyte CLint at 1 µM [6] [µL/min/1e6 cells] | Compound | EC50 ([3]; Test A EC50, RXFP1 Hu cAMP) [nM] |
| --- | --- | --- | --- | --- | --- | --- | --- | --- |
| 20 | 670 (≈ 368 µg/mL) | 106 | 24 | 0.87 | 32 | 6.5 | CC1(CNC(=O)[C@H]2[C@@H]3CC[C@@H](C3)[C@H]2NC(=O)c2cc(O[C@H]3CC[C@@](C)(C(=O)O)CC3)c(Cl)cc2F)CCC1 [Example 408] |  |
| 7.5 | 460 (≈ 314 µg/mL) | 108 | 0.49 | <0.070 | 12 | 5.7 | COc1cc(F)c(O[C@H]2CC[C@@](C)(C(=O)O)CC2)cc1C(=O)NC1C2CCC(C2)C1C(=O)Nc1ccc(F)c(S(F)(F)(F)(F)F)c1 (single isomer, unassigned) [Example 520, (1R,4s)-4-(2-Fluoro-5-(((1S*,2S*,3R*,4R*)-3-((4-fluoro-3-(pentafluoro-λ6-sulfaneyl)phenyl)carbamoyl)bicyclo[2.2.1]heptan-2-yl)carbamoyl)-4-methoxyphenoxy)-1-methylcyclohexane-1-carboxylic acid] |  |
| 19 | > 1000 | 108 | 320 | 3.3 | < 3 | 4.4 | COc1cc(F)c(O[C@H]2CC[C@@H](C(=O)O)CC2)cc1C(=O)N[C@H]1[C@@H](C(=O)Nc2ccc(OC)c(S(=O)(=O)C(F)(F)F)c2)[C@@H]2C=C[C@H]1C2 [Example 497, (1S,4s)-4-(2-Fluoro-4-methoxy-5-(((1R,2R,3S,4S)-3-((4-methoxy-3-((trifluoromethyl)sulfonyl)phenyl)carbamoyl)bicyclo[2.2.1]hept-5-en-2-yl)carbamoyl)phenoxy)cyclohexane-1-carboxylic acid] |  |
| 30 | 37 (≈ 20.8 µg/mL) | 126 | 8.4 | 0.49 | 5.4 | 11 | COc1cc(F)c(O[C@H]2CC[C@@](C)(C(=O)O)CC2)cc1C(=O)Nc1cc(Cl)ccc1C(=O)NCC1(C)CCC1 [Example 155, (1s,4s)-4-(5-((5-Chloro-2-(((1-methylcyclobutyl)methyl)carbamoyl)phenyl)carbamoyl)-2-fluoro-4-methoxyphenoxy)-1-methylcyclohexane-1-carboxylic acid] |  |
| 8 | 6.5 (≈ 3.88 µg/mL) | 98 | 180 | 0.18 | 16 | 4 | COc1cc(F)c(O[C@H]2CC[C@@H](C(=O)O)CC2)cc1C(=O)NC1=C(C(=O)Nc2ccc(F)c(C(F)(F)F)c2)CCCC1 [Example 213, (1s,4s)-4-(2-Fluoro-5-((2-((4-fluoro-3-(trifluoromethyl)phenyl)carbamoyl)cyclohex-1-en-1-yl)carbamoyl)-4-methoxyphenoxy)cyclohexane-1-carboxylic acid] |  |
| 14 | 940 (≈ 613 µg/mL) | 109 | 1500 | 0.95 | 10 | 7.2 | COc1cc(F)c(Cc2cnn(CC(=O)O)c2)cc1C(=O)N[C@@H]1[C@H]2CC[C@H](C2)[C@@H]1C(=O)Nc1cccc(S(=O)(=O)C(F)(F)F)c1 [Example 220, 2-(4-(2-Fluoro-4-methoxy-5-(((1S,2R,3S,4R)-3-((3-((trifluoromethyl)sulfonyl)phenyl)carbamoyl)bicyclo[2.2.1]heptan-2-yl)carbamoyl)benzyl)-1H-pyrazol-1-yl)acetic acid] |  |
